# Laboratory results as given in ChEMBL document CHEMBL6096719, “Kidney Targeting Smart Antibiotic Discovery: Multimechanism Pleuromutilins for Pyelonephritis Therapy” (J Med Chem, 2025).
# Columns and labels:
# [1] = Aqueous solubility of the compound incubated for 12 hrs by UV-Vis spectrophotometry; assay type: physicochemical; conditions: buffer
# Staphylococcus aureus [2] = test: Antibacterial activity against methicillin-resistant Staphylococcus aureus ATCC 43300 assessed as inhibition of bacterial growth incubated for 24 hrs by broth microdilution method; assay type: functional
# Escherichia coli [3] = test: Antibacterial activity against Escherichia coli ATCC 25922 assessed as inhibition of bacterial growth incubated for 24 hrs by broth microdilution method; assay type: functional
# Staphylococcus aureus [4] = test: Antibacterial activity against Staphylococcus aureus ATCC 29213 assessed as inhibition of bacterial growth incubated for 24 hrs by broth microdilution method; assay type: functional
# [5] = test system: Staphylococcus epidermidis; test: Antibacterial activity against methicillin-resistant Staphylococcus epidermidis ATCC 51625 assessed as inhibition of bacterial growth incubated for 24 hrs by broth microdilution method; assay type: functional
# Salmonella enterica = test: Antibacterial activity against Salmonella enterica ATCC 14028 assessed as inhibition of bacterial growth incubated for 24 hrs by broth microdilution method; assay type: functional
# Staphylococcus aureus [6] = test: Antibacterial activity against methicillin-resistant Staphylococcus aureus 575 assessed as inhibition of bacterial growth incubated for 24 hrs by broth microdilution method; assay type: functional
# Acinetobacter baumannii [7] = test: Antibacterial activity against Acinetobacter baumannii ATCC 19606 assessed as inhibition of bacterial growth incubated for 24 hrs by broth microdilution method; assay type: functional
# Escherichia coli [8] = test: Antibacterial activity against Escherichia coli CMCC 44103 assessed as inhibition of bacterial growth incubated for 24 hrs by broth microdilution method; assay type: functional
# Klebsiella pneumoniae = test: Antibacterial activity against multidrug-resistant Klebsiella pneumoniae 893 assessed as inhibition of bacterial growth incubated for 24 hrs by broth microdilution method; assay type: functional
# [9] = Cytotoxicity against human HepG2 cells assessed as reduction in cell viability incubated for 24 hrs by CCK8 assay; assay type: toxicity, cell-based
# Staphylococcus aureus [10] = test: Antibacterial activity against methicillin-resistant Staphylococcus aureus 222 assessed as inhibition of bacterial growth incubated for 24 hrs by broth microdilution method; assay type: functional
# [11] = Cytotoxicity against human A549 cells assessed as reduction in cell viability incubated for 24 hrs by CCK8 assay; assay type: toxicity, cell-based
# Enterococcus = test: Antibacterial activity against vancomycin-resistant Enterococcus 80 assessed as inhibition of bacterial growth incubated for 24 hrs by broth microdilution method; assay type: functional
# Staphylococcus aureus [12] = test: Antibacterial activity against methicillin-resistant Staphylococcus aureus 171 assessed as inhibition of bacterial growth incubated for 24 hrs by broth microdilution method; assay type: functional
# Pseudomonas aeruginosa = test: Antibacterial activity against multidrug-resistant Pseudomonas aeruginosa 126 assessed as inhibition of bacterial growth incubated for 24 hrs by broth microdilution method; assay type: functional
# [13] = Cytotoxicity against human HEK293 cells assessed as reduction in cell viability incubated for 24 hrs by CCK8 assay; assay type: toxicity, cell-based
# Acinetobacter baumannii [14] = test: Antibacterial activity against carbapenem-resistant Acinetobacter baumannii 882 assessed as inhibition of bacterial growth incubated for 24 hrs by broth microdilution method; assay type: functional
# Staphylococcus aureus [15] = test: Antibacterial activity against methicillin-resistant Staphylococcus aureus ATCC 33591 assessed as inhibition of bacterial growth incubated for 24 hrs by broth microdilution method; assay type: functional
# Staphylococcus aureus [16] = test: Antibacterial activity against methicillin-resistant Staphylococcus aureus 206 assessed as inhibition of bacterial growth incubated for 24 hrs by broth microdilution method; assay type: functional
# Staphylococcus aureus [17] = test: Antibacterial activity against methicillin-resistant Staphylococcus aureus 596 assessed as inhibition of bacterial growth incubated for 24 hrs by broth microdilution method; assay type: functional
smiles,measurement,setting,value
C=C[C@]1(C)C[C@@H](OC(=O)CSc2nc3cc[n+](Cc4cc(C)cc(C)c4)cc3[nH]2)[C@]2(C)[C@H](C)CC[C@]3(CCC(=O)[C@H]32)[C@@H](C)[C@@H]1O.[Br-],solubility at 12 h,[1],414 µg/mL
C=C[C@]1(C)C[C@@H](OC(=O)CSc2nc3cc[n+](Cc4ccc(Br)cc4)cc3[nH]2)[C@]2(C)[C@H](C)CC[C@]3(CCC(=O)[C@H]32)[C@@H](C)[C@@H]1O.[Br-],solubility at 12 h,[1],432 µg/mL
C=C[C@]1(C)C[C@@H](OC(=O)CSCCN(CC)CC)[C@]2(C)[C@H](C)CC[C@]3(CCC(=O)[C@H]32)[C@@H](C)[C@@H]1O [TIAMULIN],solubility at 12 h,[1],128 µg/mL
C=C[C@]1(C)C[C@@H](OC(=O)CSc2nc3cc[n+](Cc4ccc(C#N)cc4)cc3s2)[C@]2(C)[C@H](C)CC[C@]3(CCC(=O)[C@H]32)[C@@H](C)[C@@H]1O.[Br-],MIC,Staphylococcus aureus [2],< 2 µg/mL
same,MIC,Escherichia coli [3],< 2 µg/mL
same,MIC,Staphylococcus aureus [4],< 2 µg/mL
same,MIC,[5],< 2 µg/mL
same,MIC,Salmonella enterica,< 2 µg/mL
same,MIC,Staphylococcus aureus [6],32 µg/mL
same,MIC,Acinetobacter baumannii [7],< 2 µg/mL
same,MIC,Escherichia coli [8],< 2 µg/mL
same,MIC,Klebsiella pneumoniae,16 µg/mL
same,CC50 at 24 h,[9],78.5 µM
same,solubility at 12 h,[1],451 µg/mL
same,MIC,Staphylococcus aureus [10],16 µg/mL
same,CC50 at 24 h,[11],> 100 µM
same,MIC,Enterococcus,16 µg/mL
same,MIC,Staphylococcus aureus [12],16 µg/mL
same,MIC,Pseudomonas aeruginosa,32 µg/mL
same,CC50 at 24 h,[13],18.2 µM
same,MIC,Acinetobacter baumannii [14],64 µg/mL
same,MIC,Staphylococcus aureus [15],< 2 µg/mL
same,MIC,Staphylococcus aureus [16],64 µg/mL
same,MIC,Staphylococcus aureus [17],8 µg/mL
C=C[C@]1(C)C[C@@H](OC(=O)CSc2nc3cc[n+](Cc4cc(F)c(F)cc4F)cc3s2)[C@]2(C)[C@H](C)CC[C@]3(CCC(=O)[C@H]32)[C@@H](C)[C@@H]1O.[Br-],solubility at 12 h,[1],485 µg/mL
C=C[C@]1(C)C[C@@H](OC(=O)CSc2nc3cc[n+](Cc4ccc(C(F)(F)F)cc4)cc3s2)[C@]2(C)[C@H](C)CC[C@]3(CCC(=O)[C@H]32)[C@@H](C)[C@@H]1O.[Br-],solubility at 12 h,[1],246 µg/mL
C=C[C@]1(C)C[C@@H](OC(=O)CSc2nc3cc[n+](Cc4ccc(Cl)cc4)cc3[nH]2)[C@]2(C)[C@H](C)CC[C@]3(CCC(=O)[C@H]32)[C@@H](C)[C@@H]1O.[Br-],solubility at 12 h,[1],419 µg/mL
C=C[C@]1(C)C[C@@H](OC(=O)CSc2nc3cc[n+](Cc4ccc(Br)cc4)cc3s2)[C@]2(C)[C@H](C)CC[C@]3(CCC(=O)[C@H]32)[C@@H](C)[C@@H]1O.[Br-],solubility at 12 h,[1],344 µg/mL
Br.C=C[C@]1(C)C[C@@H](OC(=O)CSc2nc3cc[n+](Cc4ccc([N+](=O)[O-])cc4)cc3[nH]2)[C@]2(C)[C@H](C)CC[C@]3(CCC(=O)[C@H]32)[C@@H](C)[C@@H]1O,solubility at 12 h,[1],691 µg/mL
C=C[C@]1(C)C[C@@H](OC(=O)CSc2nc3cc[n+](Cc4cc(OC)cc(OC)c4)cc3s2)[C@]2(C)[C@H](C)CC[C@]3(CCC(=O)[C@H]32)[C@@H](C)[C@@H]1O.[Br-],solubility at 12 h,[1],94 µg/mL
C=C[C@]1(C)C[C@@H](OC(=O)CSc2nc3cc[n+](Cc4ccc(OC)cc4)cc3[nH]2)[C@]2(C)[C@H](C)CC[C@]3(CCC(=O)[C@H]32)[C@@H](C)[C@@H]1O.[Br-],solubility at 12 h,[1],150 µg/mL
C=C[C@]1(C)C[C@@H](OC(=O)CSc2nc3cc[n+](Cc4ccc(C#N)cc4)cc3[nH]2)[C@]2(C)[C@H](C)CC[C@]3(CCC(=O)[C@H]32)[C@@H](C)[C@@H]1O.[Br-],MIC,Staphylococcus aureus [2],< 2 µg/mL
same,MIC,Escherichia coli [3],< 2 µg/mL
same,MIC,Staphylococcus aureus [4],< 2 µg/mL
same,MIC,[5],< 2 µg/mL
same,MIC,Salmonella enterica,< 2 µg/mL
same,MIC,Staphylococcus aureus [6],32 µg/mL
same,MIC,Acinetobacter baumannii [7],< 2 µg/mL
same,MIC,Escherichia coli [8],< 2 µg/mL
same,MIC,Klebsiella pneumoniae,16 µg/mL
same,CC50 at 24 h,[9],96.3 µM
same,solubility at 12 h,[1],481 µg/mL
same,MIC,Staphylococcus aureus [10],16 µg/mL
same,CC50 at 24 h,[11],> 100 µM
same,MIC,Enterococcus,2 µg/mL
same,MIC,Staphylococcus aureus [12],16 µg/mL
same,MIC,Pseudomonas aeruginosa,32 µg/mL
same,CC50 at 24 h,[13],> 100 µM
same,MIC,Acinetobacter baumannii [14],64 µg/mL
same,MIC,Staphylococcus aureus [15],< 2 µg/mL
same,MIC,Staphylococcus aureus [16],4 µg/mL
same,MIC,Staphylococcus aureus [17],8 µg/mL
C=C[C@]1(C)C[C@@H](OC(=O)CSc2nc3cc[n+](Cc4ccc(C)cc4)cc3s2)[C@]2(C)[C@H](C)CC[C@]3(CCC(=O)[C@H]32)[C@@H](C)[C@@H]1O.[Br-],MIC,Staphylococcus aureus [6],4 µg/mL
same,MIC,Klebsiella pneumoniae,2 µg/mL
same,CC50 at 24 h,[9],46.4 µM
same,solubility at 12 h,[1],568 µg/mL
same,MIC,Staphylococcus aureus [10],4 µg/mL
same,CC50 at 24 h,[11],> 100 µM
same,MIC,Enterococcus,8 µg/mL
same,MIC,Staphylococcus aureus [12],8 µg/mL
same,MIC,Pseudomonas aeruginosa,8 µg/mL
same,CC50 at 24 h,[13],82.1 µM
same,MIC,Acinetobacter baumannii [14],4 µg/mL
same,MIC,Staphylococcus aureus [16],2 µg/mL
same,MIC,Staphylococcus aureus [17],8 µg/mL
C=C[C@]1(C)C[C@@H](OC(=O)CSc2nc3cc[n+](Cc4ccc(F)cc4)cc3[nH]2)[C@]2(C)[C@H](C)CC[C@]3(CCC(=O)[C@H]32)[C@@H](C)[C@@H]1O.[Br-],solubility at 12 h,[1],159 µg/mL
